Test results as given in ChEMBL document CHEMBL1201862, “PubChem BioAssay data set” (2004).
Values joined by “and” are separate entries in the source; they are usually repeats but may differ in a detail not shown here. Identical values can stand only once. Active and inactive are the calls of the source.

Assays:
[1] = target: T1, Heat shock factor protein 1 (Mus musculus, UniProt P38532); assay: inhibition of MG132-induced HSE-luciferase signal, confirmation, cell-based, NIH3T3, luminescence, dose retest (AID 2382); format: functional;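 also: NIH3T3 fibroblasts with HSF1-driven luciferase reporter stressed by proteasome inhibitor MG132; luminescence from HSF1-driven luciferase expression after 8 hours of MG132 stress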
T1 sequence (P38532 whole entry): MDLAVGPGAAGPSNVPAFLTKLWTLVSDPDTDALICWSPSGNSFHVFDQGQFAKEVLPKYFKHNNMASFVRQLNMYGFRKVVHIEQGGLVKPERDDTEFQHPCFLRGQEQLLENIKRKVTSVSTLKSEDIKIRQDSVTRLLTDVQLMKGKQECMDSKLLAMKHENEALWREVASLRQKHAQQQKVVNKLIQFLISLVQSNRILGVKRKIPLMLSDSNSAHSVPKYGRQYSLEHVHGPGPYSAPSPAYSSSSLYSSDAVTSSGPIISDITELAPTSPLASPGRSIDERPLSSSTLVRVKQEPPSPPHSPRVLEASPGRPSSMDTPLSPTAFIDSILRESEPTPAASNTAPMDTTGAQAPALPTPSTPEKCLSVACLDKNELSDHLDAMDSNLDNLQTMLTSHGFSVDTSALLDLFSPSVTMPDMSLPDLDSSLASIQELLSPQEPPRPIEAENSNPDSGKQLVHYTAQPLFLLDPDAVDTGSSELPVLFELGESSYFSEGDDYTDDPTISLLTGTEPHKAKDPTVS

[2] = inhibitors of intracellular T. cruzi replication, confirmation, NIH3T3 host cells, beta-gal luminescence (AID 2044); format: functional, cell-based;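 also: intracellular parasites grown in NIH/3T3 mouse fibroblasts as host cells; luminescent beta-galactosidase reporter signal from transgenic T. cruzi replicating inside host cells; inhibitors lower the luminescence signal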
[3] = cytotoxicity toward NIH3T3 fibroblasts, dose response, counter-screen, cell-based, ATP luminescence, mouse fibroblasts (AID 2010); format: functional;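 also: cells exposed to compound for about 90 hours before reading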
[4] = target: Cytochrome P450 2C9 (Homo sapiens, UniProt P11712)
Sequence of Cytochrome P450 2C9 (P11712 whole entry): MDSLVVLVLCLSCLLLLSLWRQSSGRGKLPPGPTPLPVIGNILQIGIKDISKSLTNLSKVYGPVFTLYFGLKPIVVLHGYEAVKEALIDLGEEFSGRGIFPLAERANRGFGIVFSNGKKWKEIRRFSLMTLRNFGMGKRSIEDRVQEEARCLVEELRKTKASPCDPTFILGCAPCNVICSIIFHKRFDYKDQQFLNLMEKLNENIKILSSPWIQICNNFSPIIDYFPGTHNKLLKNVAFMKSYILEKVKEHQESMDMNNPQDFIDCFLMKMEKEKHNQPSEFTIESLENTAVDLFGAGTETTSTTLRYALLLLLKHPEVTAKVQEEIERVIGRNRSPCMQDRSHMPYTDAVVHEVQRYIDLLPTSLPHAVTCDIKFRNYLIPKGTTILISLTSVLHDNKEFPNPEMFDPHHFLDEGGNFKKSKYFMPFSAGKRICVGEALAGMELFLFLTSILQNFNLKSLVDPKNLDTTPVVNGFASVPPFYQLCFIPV

[5] = Luminescence Cell-Based Dose Retest to Confirm Inhibitors of Cancer Stem Cells. [Related pubchem assays (depositor defined):AID2717, AID2721]; format: functional; details: Homo sapiens
[6] = target: Cytochrome P450 3A4 (Homo sapiens, UniProt P08684);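 also: CYP3A4 tested as one member of a cytochrome P450 panel screen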
Sequence of Cytochrome P450 3A4 (P08684 whole entry): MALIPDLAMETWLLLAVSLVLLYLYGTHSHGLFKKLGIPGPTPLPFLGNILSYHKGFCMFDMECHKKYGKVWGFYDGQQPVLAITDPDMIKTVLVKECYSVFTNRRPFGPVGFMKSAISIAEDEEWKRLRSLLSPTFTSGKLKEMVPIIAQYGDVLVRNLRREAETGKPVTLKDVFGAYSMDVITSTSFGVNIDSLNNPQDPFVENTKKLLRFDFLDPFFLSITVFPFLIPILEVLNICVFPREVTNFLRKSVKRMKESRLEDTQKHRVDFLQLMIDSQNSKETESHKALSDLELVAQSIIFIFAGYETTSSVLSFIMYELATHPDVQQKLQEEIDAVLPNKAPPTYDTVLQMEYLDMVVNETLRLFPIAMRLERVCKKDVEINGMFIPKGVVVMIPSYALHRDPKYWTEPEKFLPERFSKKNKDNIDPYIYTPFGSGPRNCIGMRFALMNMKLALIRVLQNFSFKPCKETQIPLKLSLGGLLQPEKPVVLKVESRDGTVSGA

[7] = target: T2, Corticotropin-releasing factor receptor 2/Corticotropin-releasing factor-binding protein (Homo sapiens, UniProt P24387+Q13324); assay: activators of CRF receptor 2 with binding protein – uHTS hits, confirmation (AID 602473); format: functional; details: read-out: EC50_Mean
T2 sequence (Q13324 whole entry): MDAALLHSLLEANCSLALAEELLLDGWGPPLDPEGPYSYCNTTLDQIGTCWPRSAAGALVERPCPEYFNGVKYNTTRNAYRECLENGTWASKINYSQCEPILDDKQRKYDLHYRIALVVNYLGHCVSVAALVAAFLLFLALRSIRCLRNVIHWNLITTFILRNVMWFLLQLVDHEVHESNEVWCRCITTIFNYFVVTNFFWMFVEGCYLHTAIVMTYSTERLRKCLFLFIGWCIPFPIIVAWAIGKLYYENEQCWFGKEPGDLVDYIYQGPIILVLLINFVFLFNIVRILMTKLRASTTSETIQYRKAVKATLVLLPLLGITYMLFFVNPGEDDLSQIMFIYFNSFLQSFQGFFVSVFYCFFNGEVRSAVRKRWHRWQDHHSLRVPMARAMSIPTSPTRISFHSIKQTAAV
T2 sequence (P24387 whole entry): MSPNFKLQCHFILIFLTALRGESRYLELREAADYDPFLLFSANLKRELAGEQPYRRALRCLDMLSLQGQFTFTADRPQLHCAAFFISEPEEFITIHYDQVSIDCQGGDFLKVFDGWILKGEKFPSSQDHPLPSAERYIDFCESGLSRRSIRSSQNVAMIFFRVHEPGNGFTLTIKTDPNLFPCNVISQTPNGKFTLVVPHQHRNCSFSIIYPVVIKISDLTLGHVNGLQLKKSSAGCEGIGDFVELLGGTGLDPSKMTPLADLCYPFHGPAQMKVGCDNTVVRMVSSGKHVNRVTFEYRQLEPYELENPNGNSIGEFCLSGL

[8] = target: Cytochrome P450 2C19 (Homo sapiens, UniProt P33261); assay: Cytochrome panel assay with activity outcomes. Panel member name: p450-cyp2c19 Compounds with AC50 equal or less than 10 uM are considered active; format: functional
Sequence of Cytochrome P450 2C19 (P33261 whole entry): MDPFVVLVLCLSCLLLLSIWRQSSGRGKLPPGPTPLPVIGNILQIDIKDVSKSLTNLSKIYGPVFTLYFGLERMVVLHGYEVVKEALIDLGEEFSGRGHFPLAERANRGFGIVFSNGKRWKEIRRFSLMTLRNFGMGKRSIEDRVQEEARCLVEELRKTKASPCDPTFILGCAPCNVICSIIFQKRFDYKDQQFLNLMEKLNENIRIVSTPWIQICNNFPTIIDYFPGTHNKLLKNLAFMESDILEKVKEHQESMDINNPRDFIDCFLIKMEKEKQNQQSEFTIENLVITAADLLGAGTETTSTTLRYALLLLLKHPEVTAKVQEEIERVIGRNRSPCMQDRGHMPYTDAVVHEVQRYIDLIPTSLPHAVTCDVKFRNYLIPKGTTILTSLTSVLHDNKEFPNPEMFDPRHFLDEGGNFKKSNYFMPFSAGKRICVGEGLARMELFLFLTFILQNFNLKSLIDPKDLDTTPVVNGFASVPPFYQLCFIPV

[9] = Luminescence Cell-Based Dose Response HTS to Identify Activators of Luciferase Translation or Activity in H4 […] Cells. [Related pubchem assays: 1829 (Project Summary), 1814 (Primary HTS)]; format: functional

CCN(CC(=O)Nc1ccc(NC(C)=O)cc1)C(=O)C12CC3CC(CC(Cl)(C3)C1)C2
EC50 [1]: > 195 µM (not active)

CCOc1cc(C#N)c(NC(=O)c2cccnc2Cl)cc1OCC
EC50 [1]: > 195 µM (not active)

CC(C)c1ccc(CNCCCSc2ncccn2)cc1
EC50 [2]: 0.163 µM (active)
EC50 [3]: > 30 µM (not active)

CCC(C)NC(=O)CN1C(=O)CN=C(c2ccccc2)c2ccccc21 (stereo not given)
EC50 [1]: > 195 µM (not active)

COc1cccc(-c2nccc(NCc3cccc(C)c3)n2)c1
AC50 [4]: 1.58 µM (inconclusive)

Nc1ncnc2c1ncn2[C@@H]1O[C@H](CO)C[C@@H]1O
EC50 [2]: 0.531 µM (active)
EC50 [3]: > 60 µM (not active)

S=C(Nc1ccc(Oc2ccccc2)cc1)NC1CCCCCC1
AC50 [5]: 5.01 µM (active)

CC(=O)Nc1ccc2nc(NC(=O)c3ccc([N+](=O)[O-])s3)sc2c1
EC50 [2]: 0.993 µM (active)
EC50 [3]: > 60 µM (not active)

CCOc1ccc(CN2CCN(Cc3nc4c(s3)CCCC4)CC2CCO)cc1 (stereo not given)
EC50 [2]: 0.772 µM (active)
EC50 [3]: > 60 µM (not active)

O=C(O)CCC(=O)N1CCc2cc(S(=O)(=O)N3CCCCC3)ccc21
AC50 [4]: 15.8 µM (inconclusive)

CCN1CCN(c2ccc(S(=O)(=O)N3CCCCC3)cc2NC(=O)Cc2ccccc2F)CC1
EC50 [2]: 0.235 µM (active)
EC50 [3]: > 30 µM (not active)

CC(C)(C)S(=O)(=O)c1cnc2c(-c3ccc(F)cc3)cnn2c1N
AC50 [6]: 7.94 µM (inconclusive)

CN(Cc1nc(-c2ccccc2)no1)C(=O)c1ccc2c(c1)OCO2
EC50 [1]: > 195 µM (not active)

O=C(Nc1cccc(F)c1)N1CC[C@@]2(CCCNC2)C1
AC50 [6]: 7.94 µM (inconclusive)

CCOc1ccc(C(=O)Nc2ccccc2N2CCCC2)cc1
AC50 [4]: 14.1 µM (inconclusive)

COc1ncc2nc(C)c(=O)n(C3CC3)c2n1
AC50 [6]: 25.1 µM (inconclusive)

Cc1noc(C)c1COc1cccc(C(=O)Nc2ccc(OCc3ccccc3)cc2)c1
AC50 [5]: 10.8 µM (active)

Cc1ccc(SC[C@H](C)CN2CC[C@H](C(C)(C)C)CCC2=O)cc1
AC50 [5]: 1.56 µM (active)

COc1cc(CNCc2c[nH]c3ccccc23)cc(OC)c1
EC50 [2]: 2.93 µM (active)
EC50 [3]: > 60 µM (not active)

CCOC(=O)c1c(-c2ccccc2)n(C)c2ccc(O)cc12
EC50 [1]: > 195 µM (not active)

O=C(COC(=O)C1C2CC3OC(=O)C1C3C2)Nc1cccc(Cl)c1 (stereo not given)
EC50 [1]: > 195 µM (not active)

O=C(Oc1ccc2c(c1)CN(Cc1ccccc1)CO2)c1ccccc1
AC50 [6]: 3.98 µM (inconclusive)

CNC(=O)c1ccsc1NC(=O)c1ccc(S(=O)(=O)N2CCCc3ccccc32)cc1
EC50 [2]: 2.02 µM (active)
EC50 [3]: > 60 µM (inconclusive)

COCCCNC(=O)C1CC(=O)N(CCc2ccc(OC)c(OC)c2)C1 (stereo not given)
AC50 [6]: 15.8 µM (inconclusive)

Cc1onc(-c2ccc(Cl)cc2)c1-c1ccnc(SCC(=O)Nc2cc(Cl)cc(Cl)c2)n1
EC50 [2]: 1.72 µM (active)
EC50 [3]: > 60 µM (not active)

CCCOc1c(OC)cccc1C1CC(=O)Nc2cc3c(cc21)OCCO3 (stereo not given)
AC50 [5]: 1.85 µM (active)

NS(=O)(=O)c1ccc(NC(=O)COC(=O)C2(c3ccccc3F)CCCC2)cc1
EC50 [1]: 26 µM (active)

Cc1c(C(=O)Nc2ccc(Cl)cc2)c2ccccn2c1C(=O)c1ccc([N+](=O)[O-])cc1
EC50 [2]: 0.737 µM (active)
EC50 [3]: > 60 µM (not active)

Cn1c(CN2CCCC(C(=O)c3ccc4c(c3)OCO4)C2)nc2ccccc21 (stereo not given)
EC50 [2]: 1.35 µM (active)
EC50 [3]: > 60 µM (inconclusive)

CCN(CC)C(=O)N[C@@H]1C[C@H]2c3cccc4[nH]cc(c34)C[C@@H]2N(C)C1
AC50 [6]: 6.31 µM (inconclusive) and 3.98 µM (inconclusive)

COc1ccccc1Oc1ccc2c(c1)C(=O)N(c1ccc(Br)c3cccnc13)C2=O
EC50 [1]: > 195 µM (not active)

Clc1ccc(Cl)c(Nc2ccnc(SCc3ccccc3)n2)c1
AC50 [6]: 3.98 µM (inconclusive)
AC50 [4]: 6.31 µM (inconclusive)

O=C(CSc1ncc(-c2ccccc2)n1C1CCCC1)N1CCc2ccccc21
EC50 [2]: 1.81 µM (active)
EC50 [7]: > 53 µM (inactive)
EC50 [3]: > 60 µM (not active)

COc1ccccc1NC(=O)Cn1c(=O)c(N(C)C)c(N)n(C)c1=O
EC50 [1]: > 195 µM (not active)

O=C(NNC(=S)Nc1ccccc1)c1ccco1
AC50 [4]: 35.5 µM (inconclusive)

COc1ccc(S(=O)(=O)/C(C#N)=C/Nc2cccc(OC)c2)cc1
EC50 [1]: > 195 µM (not active)

Cc1cc2nc(-c3ccc(SCc4ccc(C#N)cc4)nc3)[nH]c2cc1C
EC50 [2]: 2.06 µM (active)
EC50 [3]: > 60 µM (inconclusive)

N#CC(=C1CCCC1)c1nc(-c2ccccc2)cs1
AC50 [4]: 25.1 µM (inconclusive)

C[C@@H]1CC=C[C@H]2[C@H]1C(=O)N(Cc1ccccc1)[C@H]2c1ccc2ccccc2c1
AC50 [5]: 5.69 µM (active)

CCN1C(=O)c2ccccc2[S+]([O-])c2ccc(C(=O)NCc3ccc(OC)cc3)cc21 (stereo not given)
EC50 [1]: > 195 µM (not active)

COc1ccc(C(=O)C2CCCN(Cc3cccn3-c3ccc(Cl)cn3)C2)c(OC)c1 (stereo not given)
EC50 [2]: 1.47 µM (active)
EC50 [3]: > 60 µM (not active)

O=C1NC(=O)[C@@](Cc2ccccc2)(c2cccnc2)N1
AC50 [6]: 3.98 µM (inconclusive)

CN(C)Cc1ccccc1-c1cc(N(C)Cc2ccco2)ncn1
AC50 [6]: 25.1 µM (inconclusive)

Fc1cccc(Cl)c1/C=N\N=C1c2ccccc2-c2ccccc21
AC50 [4]: 3.16 µM (inconclusive)

COc1ccc(OC)c(Nc2c3ccccc3nc3ccccc23)c1
AC50 [5]: 3.78 µM (active)

COc1ccc(CN2CC=C(c3ccc(F)cc3)CC2)cc1Br
EC50 [1]: > 195 µM (not active)

c1cncc(CNc2cc(-c3ccoc3)ncn2)c1
AC50 [6]: 3.98 µM (inconclusive)

CC(C)N(CCNC(=O)C1CCC(=O)N1Cc1ccc(F)cc1)Cc1ccccc1 (stereo not given)
AC50 [4]: 22.4 µM (inconclusive)

COC(=O)[C@@]1(Cc2ccc(F)cc2)[C@H]2c3cc(C(=O)N4CCCC4)n(CCc4c[nH]c5ccc(OC)cc45)c3C[C@H]2CN1C(=O)c1ccccc1
AC50 [6]: 0.251 µM (inconclusive)

Fc1ccccc1Nc1nc(-c2ccncc2)nc2ccccc12
EC50 [2]: 1.32 µM (active)
EC50 [3]: > 60 µM (not active)

CCC(=O)N(Cc1ccco1)c1nc(-c2ccccc2)cs1
AC50 [6]: 39.8 µM (inconclusive)

Cc1cc(OCC(=O)N2CCOCC2)ccc1NC(=O)c1ccccc1C
EC50 [1]: > 195 µM (not active)

COc1cc(CCC(=O)OCn2nnc3ccccc3c2=O)cc(OC)c1OC
EC50 [1]: > 195 µM (not active)

O=C(C1CCN(S(=O)(=O)N2CCOCC2)CC1)N1CCN(c2ccccc2)CC1
AC50 [4]: 22.4 µM (inconclusive)

CC(=O)OCC(=O)NCC(=O)c1c[nH]c2ccccc12
EC50 [1]: > 195 µM (not active)

Cc1n[nH]c(Nc2ccccc2)c1[N+](=O)[O-]
AC50 [6]: 25.1 µM (inconclusive)

CC1CN(S(=O)(=O)c2ccc(C(=O)Nc3nnc(-c4ccc5c(c4)CCCC5)o3)cc2)CC(C)O1 (stereo not given)
EC50 [2]: 1.86 µM (active)
EC50 [3]: 3.39 µM (active)

CCN(CC)S(=O)(=O)c1cc(C(=O)Nc2ccccc2C(=O)O)ccc1OC
AC50 [6]: 12.6 µM (inconclusive)

C=CCOc1ccc(/C=N\NC(N)=S)cc1
EC50 [2]: 1.17 µM (active)
EC50 [3]: > 60 µM (inconclusive)

CN1CCC[C@@H]1c1cccnc1.Cc1ccc(C(=O)O[C@@H](C(=O)O)[C@@H](OC(=O)c2ccc(C)cc2)C(=O)O)cc1
AC50 [8]: inconclusive

CN(C)c1ccc(/N=C/c2nc(-c3ccccc3)oc2OC(=O)c2cccc(Br)c2)cc1
EC50 [9]: 31 µM (active)

C/C(=N\Nc1ccc(C(=O)O)cc1)c1nc2ccccc2n1C
EC50 [9]: 18.9 µM (active)
